The supplement of paper PMC8960247
± gives the standard error.

Columns and labels:
621-102 (TSC2-deficient) = assay: relative viability vs DMSO; higher = less cytotoxic; details: serum: 10% FBS, 72 h
621-103 (TSC2-rescued) = assay: as above; details: serum: 10% FBS, 72 h
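Further: immortalized renal angiomyolipoma cells stably carrying empty vector or TSC2, dosed in 384-well plates in DMEM, viability normalized to vehicle-treated wells within each plate.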

Compound	relative viability (621-102 (TSC2-deficient); 0.0001 µM) [%]	relative viability (621-102 (TSC2-deficient); 0.001 µM) [%]	relative viability (621-102 (TSC2-deficient); 0.01 µM) [%]	relative viability (621-102 (TSC2-deficient); 0.1 µM) [%]	relative viability (621-102 (TSC2-deficient); 1 µM) [%]	relative viability (621-102 (TSC2-deficient); 10 µM) [%]	relative viability (621-103 (TSC2-rescued); 0.0001 µM) [%]	relative viability (621-103 (TSC2-rescued); 0.001 µM) [%]	relative viability (621-103 (TSC2-rescued); 0.01 µM) [%]	relative viability (621-103 (TSC2-rescued); 0.1 µM) [%]	relative viability (621-103 (TSC2-rescued); 1 µM) [%]	relative viability (621-103 (TSC2-rescued); 10 µM) [%]
CC1(C)CC(=O)c2c(C(F)(F)F)nn(-c3ccc(C(N)=O)c(N[C@H]4CC[C@H](OC(=O)CN)CC4)c3)c2C1	63.2 ± 4.8	65.7 ± 8	36.9 ± 4.2	18.7 ± 2.5	13.6 ± 2.5	17 ± 1.1	108 ± 4.1	111.5 ± 0.33	82.7 ± 3.9	7.92 ± 0.44	6.41 ± 0.23	7.58 ± 0.32
CN(c1ncccc1CNc1nc(Nc2ccc3c(c2)CC(=O)N3)ncc1C(F)(F)F)S(C)(=O)=O	99.84 ± 0.61	105 ± 2.5	97.1 ± 2.1	101 ± 1.2	94.8 ± 5.8	47.7 ± 8.3	106 ± 4.2	94.4 ± 5.1	102 ± 0.37	100.6 ± 0.65	97.5 ± 6.1	38.2 ± 5.9
CN1CCN(c2ccc([N+](=O)[O-])c3no[n+]([O-])c23)CC1	102 ± 5.5	101.2 ± 1	105 ± 1.3	102 ± 1.3	103 ± 1.9	88.03 ± 0.45	75 ± 4.3	82.8 ± 4.1	87.4 ± 5.2	98.8 ± 1.6	96 ± 2.7	65.3 ± 5
CNC(=O)c1ccc(C)c(-n2c(C)cc(OCc3ccc(F)cc3F)c(Br)c2=O)c1	105 ± 5.5	101 ± 2.1	109.06 ± 0.1	109 ± 1.6	97.8 ± 1.9	103 ± 0.24	102 ± 4.2	102 ± 2.3	99 ± 1	97.6 ± 0.99	99.4 ± 1.4	95 ± 2.2
COC(=O)N1CCN(Cc2cccc(NC(=O)Nc3ccc(C)nc3)c2F)CC1	93.8 ± 5.1	94.7 ± 5.8	97.5 ± 0.16	96.33 ± 0.19	85.15 ± 0.1	95.3 ± 1.4	103 ± 5.3	111 ± 1.7	110 ± 1.2	101 ± 2.6	108 ± 2.7	104 ± 2.6
COc1cc(Nc2ncc(F)c(Nc3ccc4c(n3)N(COP(=O)(O)O)C(=O)C(C)(C)O4)n2)cc(OC)c1OC	111.5 ± 1.1	107.4 ± 0.97	106.9 ± 0.48	94.91 ± 0.5	87.5 ± 2	57.13 ± 0.27	103 ± 1.3	104.7 ± 0.53	101 ± 1.2	102 ± 5	78.9 ± 2.7	14.7 ± 0.48
COc1cc(OC)c(/C=C/S(=O)(=O)Cc2ccc(OC)c(NCC(=O)O)c2)c(OC)c1	109 ± 2.7	109 ± 2.2	103.2 ± 0.43	97.9 ± 1.3	42 ± 1.4	30.9 ± 0.31	100.5 ± 0.4	99 ± 1.7	98.7 ± 1.2	97.9 ± 1.8	47.98 ± 0.052	24.1 ± 0.81
COc1cc(OC)c(NC(=O)Nc2cc(C)on2)cc1Cl	83.6 ± 4.5	92 ± 5	97.3 ± 3.8	89.4 ± 4.5	96.7 ± 7	92.8 ± 3.9	113 ± 2.2	109 ± 3.5	105 ± 3.8	113 ± 2.9	109 ± 2.6	111 ± 2.2
